“And” between values parts separate entries of the source, which are not always exact repeats. Equal entries are not always repeated. “Also recorded” adds a separate entry of the source.
Assays:
Type in all cases: in vivo
[1] = tested on: Tfr1^hrt/hrt mice; assay: NR rescue experiment, survival of Tfr1^hrt/hrt mice
From the text: 129/SvEv mice bearing a floxed Tfrc allele were crossed with transgenic C57BL/6 mice expressing Cre recombinase under the control of the a-MyHC promoter. Backcrossing was with 129/SvEv mice for more than 10 generations and after the initial phenotypic characterization, all studies used mice with a homogeneous 129/SvEv background. Animals were genotyped by polymerase chain reaction (PCR) using genomic DNA from toe clips. Primers for Tfrc alleles, Cre, Hjv alleles, and Rosa26 are described in Table 1.
One-way ANOVA was performed for comparisons between two means, including when the comparison was between the means of WT and Tfr1^hrt/hrt. Survival analysis was performed using Logrank in Graphpad software. P<0.05 was considered statistically significant.
An independent statistical analysis for survival analysis was also performed as described below.
(§1) Survival time was modeled as follows: Tij=μ+Bj+sij
(§2) Where Tij was the survival time (in days) for the i-th mouse in the j-th group. The model explained this in terms of a baseline mean m, an effect bj for the j-th group (relative to baseline) and inter-mouse variation eij. The model was fit using ordinary least squares (1-way ANOVA).
(§3) For the NR rescue experiment, the baseline was Tfr1^hrt/hrt with PBS. There was no significant improvement in mean survival when using just Tfr1^hrt/hrt (0.625 days, p-value=0.26, Table 3). There was, however, a significant improvement in the Tfr1^hrt/hrt with NR group (2.29 days, p-value<0.001). For statistical calculations, lifespan was over 19.6 days for wild-type mice.

[2] = tested on: WT mice; assay: NR rescue experiment, survival of WT mice with NR; details: baseline Tfr1^hrt/hrt with PBS, for calculations lifespan was over 19.6 days for wild-type mice
From the text: as §1, §2, §3

[3] = tested on: hearts from Tfr1^hrt/hrt mice; assay: UPR^MT mRNA levels in hearts of NR-treated mice (real-time PCR); details: P10 hearts, NR treated vs untreated, FIGS. 19A and 19B
Description: Total heart RNA was isolated from flash-frozen tissue using the RNeasy Fibrous Tissue Mini Kit (Qiagen) and reverse transcribed as described in Schmidt et al. (2008) Cell Metab. […] For the microarray analysis, the Affymetrix GeneChip® Mouse Genome 430 2.0 Array was used. A minimum of 200 ng RNA was used for each sample. RNA samples were processed by the Duke Microarray Shared Resource Services. Transcript abundance was quantified by 2-step real-time PCR, using amplification conditions as described in Schmidt et al. (2008) Cell Metab. […] Primers are summarized in Table 2 and Rpl19 was used as an internal control.

[4] = tested on: hearts from Tfr1^hrt/hrt mice; assay: p62 protein levels in hearts of NR-treated mice; details: NR treated vs untreated, FIGS. 20A and 20B
From the text: Atg9A (Novus Biologicals).

[5] = tested on: Tfr1^hrt/hrt mice; assay: NAD/NADH ratios in tissue with and without NR treatment; details: measurements from tissue

NC(=O)c1ccc[n+]([C@@H]2O[C@H](CO)[C@@H](O)[C@H]2O)c1 [NR, nicotinamide riboside]
Extension of lifespan ([1]; Tfr1^hrt/hrt mice, NR administration, FIG. 7E): up to 5 days | Prolongation of lifespans ([1]; Tfr1^hrt/hrt mice, NR vs vehicle, FIG. 7E): up to 50% | Effect: improvement in mean survival relative to baseline ([1]; Tfr1^hrt/hrt with NR, 750 mg/kg IP daily from P5, baseline Tfr1^hrt/hrt with PBS (10.375), 1-way ANOVA model, p<0.001, 750 mg/kg): 2.29 days and 2.292 days | Lifespan of treated mice (in words) ([1]; in the absence of iron therapy): increased the lifespan | Effect: survival relative to baseline [2]: 19.625 days | Expression of UPR^MT mRNAs (Atf4, Lonp1, Ddit3, Fgf21) in heart [3]: decreased expression; also recorded: blunted | Accumulation of p62 in the hearts [4]: alleviated the accumulation | NAD/NADH ratios [5]: inconclusive
